Laboratory results published in patent US20240287029A1, “SULFONAMIDES, METHOD FOR PREPARATION THEREOF, AND USE THEREOF” (CHENGDU SHIBEIKANG BIOMEDICAL TECHNOLOGY CO., LTD., priority 2021, published 2024).
Marks after values point to notes of the source that are not given here.

Key:
[1] = system: ammonia-induced coughs in mice; assay: Mouse coughing test (concentrated ammonia induced cough); type: in vivo; conditions: KM mice, 30 mg/kg intragastric; for duration of cough-relieving action compared to Comparative Compound 1: 60 and 120 min; for Number of coughs: 30 min after administration; for Number of coughs / Number of coughs 60 min / Number of coughs 120 min: coughs within 3 min, group mean; for Number of coughs 60 min: 60 min after administration; for Number of coughs 120 min: 120 min after administration
Text: Healthy adult KM mice, half male and half female, 6 mice in each group, each weighing about 28-30 g.
Most of the animal coughing models reported in the literature use mechanical, chemical and electrical stimulation to stimulate the animal's nerves and receptors to trigger coughing. Based on the characteristics of the candidate compounds and the existing similar target compounds as a reference, the concentrated ammonia induction method was preliminarily selected to establish a coughing model in mice.
Preparation of 50% aqueous ammonia solution: 2.5 ml aqueous ammonia was dissolved in a 5 ml injection solution of 0.9% sodium chloride, and mixed well.
Preparation of solutions of the positive control and Comparative Compound 1: each of 9 mg positive control and 9 mg Comparative Compound 1 was weighed and dissolved in a 3 ml solution of 0.5% CMC-Na, and fully mixed, to obtain a 3 mg/ml solution.
Preparation of solutions of the compounds of Examples: 9 mg of the compound of each Example was dissolved in a 3 ml solution of 0.5% CMC-Na, and mixed thoroughly, to obtain a 3 mg/ml solution.
Grouping: Comparative Example 1 group, Positive control group, Example group, Model group. Six KM mice in each group were intragastrically given Comparative Compound 1 (30 mg/kg), the positive control (Gefapixant, purchased, 30 mg/kg), and an Example compound (30 mg/kg), and the model group was given an equal volume of 0.5% CMC-Na solution. 30 min, 60 min, or 120 min after administration, each mouse was placed in a 500 ml beaker, and a cotton ball (weight: 100±5 mg) containing 0.3 ml 50% aqueous ammonia was placed in the beaker. The number of typical coughs by the mouse within 3 min was observed (typical cough: contraction of the abdominal muscle or contraction of the chest, accompanied by wide opening of the mouth and a coughing sound).
• (1) Cough judgment criteria: Cough was judged by contraction of the abdominal muscle or contraction of the chest, accompanied by wide opening of the mouth and a coughing sound. • (2) The number of coughs by the mice within 3 min was recorded with a stop watch, and statistically analyzed with software. The data of each group were statistically expressed in mean±standard deviation, and one-way ANOVA between multiple groups was performed, P<0.05 for statistically significant difference.

human P2X3 receptor = biological target: T1, human P2X3 receptor (Homo sapiens, UniProt P56373); assay: In vitro biological activity evaluation, P2X3 antagonist mode FLIPR assay with BZATP agonist
T1 sequence (P56373 1-397): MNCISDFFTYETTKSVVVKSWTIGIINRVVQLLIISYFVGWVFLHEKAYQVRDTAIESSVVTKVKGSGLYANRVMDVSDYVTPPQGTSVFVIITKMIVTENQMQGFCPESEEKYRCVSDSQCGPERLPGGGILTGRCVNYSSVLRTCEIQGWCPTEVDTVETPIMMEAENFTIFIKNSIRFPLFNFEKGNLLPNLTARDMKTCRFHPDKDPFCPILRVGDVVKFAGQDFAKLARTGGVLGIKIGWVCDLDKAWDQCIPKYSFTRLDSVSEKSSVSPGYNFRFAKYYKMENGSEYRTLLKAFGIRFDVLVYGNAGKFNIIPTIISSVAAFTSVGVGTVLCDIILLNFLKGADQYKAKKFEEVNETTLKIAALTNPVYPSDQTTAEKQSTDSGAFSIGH
Text: A HEK293 cell line stably transfected with human P2X3 receptor was used.

sense of taste of rats = assay: Taste disorder test (quinine water / tap water two-bottle drinking); type: in vivo, SD rats; conditions: 10 mg/kg intravenous; for effect on the sense of taste: quinine water/tap water ratio vs solvent group, in words; for Quinine water/tap water (%): SD rats, drinking 0 to 15 min after administration, 0.3 mM quinine
Procedure: Preparation of 0.3 mM quinine solution: 119.20 mg quinine hydrochloride was weighed and dissolved in 1,000 ml tap water, and mixed well.
Preparation of test sample solution: 40 mg of the test sample was weighed and added to an appropriate amount of DMSO and dissolved, then a solution of solubilizer HS-15 was added thereto and mixed well, and 16 ml saline was added, to obtain a solution of 2.5 mg/ml.
Animals and grouping: male SD rats each about 160 to 180 g, 10 rats per group, with similar average weight in each group, fed in separate cages.
Drinking habit training: the animals in each group were given normal drinking water for 30 minutes at 8:30 am and 4:30 pm every day, with water deprivation for the rest of the day, and trained for 5 days, wherein two bottles of water placed in the left and right positions respectively were renewed every day.
Administration: After water deprivation over the night before the experiment, on the next morning 4 mL/kg (10 mg/kg) of the test sample was injected intravenously in the tail vein of the rats in the test group, and 4 mL/kg (10 mg/kg) of 0.5% HS-15 was injected intravenously in the model group.
• (1) Drinking water measurement: after injection, the animals were put back to their original cages, and the measurement time of each group was in the window covering the Tmax of the drugs (the measurement time was from 0 min to 15 min after administration); in each cage a bottle of normal drinking water and a bottle of drinking water containing 0.3 mM quinine hydrochloride (Quinie) were placed, and the left and right positions of the two bottles in all cages were the same. The animals were allowed to drink freely for 15 min, and the volume of water consumed from the two bottles was measured separately, accurate to 0.1 ml. • (2) Statistical analysis of data: the volume of the consumed quinine bitter water and the volume of the consumed tap water were measured, the percentage of quinine water relative to tap water was calculated, and ANOVA was used to check whether there was a significant difference between the groups.

[2] = system: refractory or unexplained chronic cough in adult patients; conditions: cited from earlier work

Row | SMILES | IC50 (human P2X3 receptor) [nM] | effect on the sense of taste (sense of taste of rats) | Quinine water/tap water (%) (sense of taste of rats) | duration of cough-relieving action compared to Comparative Compound 1 ([1]; in words) | Number of coughs [1] | Number of coughs 60 min [1] | Number of coughs 120 min [1] | cough relieving effect 120 min after administration ([1]; vs model group, in words) | primary endpoint ([2]; 15 mg twice daily) | 24-hour cough frequency ([2]; 45 mg twice daily, Week 12 (COUGH-1) and Week 24 (COUGH-2), compared with placebo) | discontinuation due to adverse events ([2]; 45-mg group) | taste-related adverse events ([2]; 45-mg group)
1 | CNS(=O)(=O)NC(=O)[C@@H](C)Cn1c(=O)nc(Nc2ccc(Oc3ccc(Cl)cn3)cc2)n(Cc2ccc(Cl)cc2)c1=O [Example 10] | < 10 | – | – | significantly prolonged | 20.27** | 20.33** | 24.13**^Δ | – | – | – | – | –
2 | C[C@@H](Cn1c(=O)nc(Nc2ccc(Oc3ccc(OC(F)F)cn3)cc2)n(Cc2ccc(Cl)cc2)c1=O)C(=O)NS(=O)(=O)c1ccc(F)cc1 [Example 8, (S)-3-(3-(4-chlorobenzyl)-4-(4-(5-(5-(difluoromethoxy)pyridin-2-yl)oxyphenyl)amino)-2,6-dioxo-3,6-dihydro-1,3,5-triazin-1(2H)-yl)-N-(4-(4-fluorophenyl)sulfonyl)-2-methylpropionamide] | 10.1 to 100 | – | – | – | 29.83* | – | – | – | – | – | – | –
3 | C[C@@H](Cn1c(=O)nc(Nc2ccc(Oc3ccccn3)cc2)n(Cc2ccc(Cl)cc2)c1=O)C(=O)O [Comparative Example 1, reference compound] | < 10 | – | – | – | 15.61** | 22.29** | 45.21 | did not have an obvious cough relieving effect | – | – | – | –
4 | CS(=O)(=O)NC(=O)C1(Cn2c(=O)nc(Nc3ccc(Oc4ccccn4)cc3)n(Cc3ccc(Cl)cc3)c2=O)CC1 [Example 12] | < 10 | almost no effect | 39.39%^Δ | significantly prolonged | 19.39** | 20.17** | 24.14**^Δ | – | – | – | – | –
5 | C[C@@H](Cn1c(=O)nc(Nc2ccc(Oc3ccccn3)cc2)n(Cc2ccc(Cl)cc2)c1=O)C(=O)NS(=O)(=O)N1CCCC1 [Example 5] | < 10 | – | – | significantly prolonged | 12.85** | 16.25** | 23.11**^Δ | – | – | – | – | –
6 | Cc1ccc(S(=O)(=O)NC(=O)[C@@H](C)Cn2c(=O)nc(Nc3ccc(Oc4ccccn4)cc3)n(Cc3ccc(Cl)cc3)c2=O)cc1 [Example 9] | 10.1 to 100 | – | – | – | 25.11* | – | – | – | – | – | – | –
7 | C[C@@H](Cn1c(=O)nc(Nc2ccc(Oc3ccccn3)cc2)n(Cc2ccc(Cl)cc2)c1=O)C(=O)NS(=O)(=O)C(F)(F)F [Example 4] | 10.1 to 100 | – | – | – | 28.61* | – | – | – | – | – | – | –
8 | C[C@@H](Cn1c(=O)nc(Nc2ccc(Oc3ccccn3)cc2)n(Cc2ccc(Cl)cc2)c1=O)C(=O)NS(=O)(=O)c1ccccc1 [Example 7] | 10.1 to 100 | – | – | – | 28.66* | – | – | – | – | – | – | –
9 | C[C@@H](Cn1c(=O)nc(Nc2ccc(Oc3ccccn3)cc2)n(Cc2ccc(Cl)cc2)c1=O)C(=O)NS(=O)(=O)N(C)C [Example 3] | < 10 | almost no effect | 38.11%^Δ | significantly prolonged | 15.34** | 16.98** | 18.56**^Δ | – | – | – | – | –
10 | CCS(=O)(=O)NC(=O)[C@@H](C)Cn1c(=O)nc(Nc2ccc(Oc3ccccn3)cc2)n(Cc2ccc(Cl)cc2)c1=O [Example 2] | < 10 | – | – | – | 17.12** | – | – | – | – | – | – | –

Further lines, with some results ahead:

Row | IC50 (human P2X3 receptor) [nM] | effect on the sense of taste (sense of taste of rats) | Quinine water/tap water (%) (sense of taste of rats) | SMILES | duration of cough-relieving action compared to Comparative Compound 1 ([1]; in words) | Number of coughs [1] | Number of coughs 60 min [1] | Number of coughs 120 min [1] | cough relieving effect 120 min after administration ([1]; vs model group, in words) | primary endpoint ([2]; 15 mg twice daily) | 24-hour cough frequency ([2]; 45 mg twice daily, Week 12 (COUGH-1) and Week 24 (COUGH-2), compared with placebo) | discontinuation due to adverse events ([2]; 45-mg group) | taste-related adverse events ([2]; 45-mg group)
11 | < 10 | almost no effect | 37.01%^Δ | C[C@@H](Cn1c(=O)nc(Nc2ccc(Oc3ccccn3)cc2)n(Cc2ccc(Cl)cc2)c1=O)C(=O)NS(C)(=O)=O [Example 1] | significantly prolonged | 13.33** | 18.37** | 17.28**^Δ | – | – | – | – | –
12 | – | – | 79.01%** | COc1cc(C(C)C)c(Oc2cnc(N)nc2N)cc1S(N)(=O)=O [Positive control, Gefapixant] | – | 20.51** | – | – | – | did not meet the primary endpoint | statistically significant reduction | higher frequency | higher incidence
13 | < 10 | almost no effect | 37.12%^Δ | CC(C)(Cn1c(=O)nc(Nc2ccc(Oc3ccccn3)cc2)n(Cc2ccc(Cl)cc2)c1=O)C(=O)NS(C)(=O)=O [Example 11] | significantly prolonged | 17.62** | 16.68** | 18.90**^Δ | – | – | – | – | –
14 | < 10 | almost no effect | 41.54%^Δ | CC(C)NS(=O)(=O)NC(=O)[C@@H](C)Cn1c(=O)nc(Nc2ccc(Oc3ccccn3)cc2)n(Cc2ccc(Cl)cc2)c1=O [Example 6] | significantly prolonged | 20.60** | 17.63** | 28.78*^Δ | – | – | – | – | –
